Results: patent US20120316122A1, “PHARMACEUTICAL COMPOSITIONS FOR COMBATING THROMBOTIC DISEASES AND THEIR PREPARATION AND USES” (INSTITUTE OF RADIATION MEDICINE, ACADEMY OF MILITARY …, priority 2009, published 2012)
“Also recorded” adds a separate entry of the source.

How the values were obtained:
caudal vein bleeding = test: Caudal vein bleeding time in mice; conditions: 40 mg/Kg gastric twice per day 5 days, test 1 h after dose on 6th day
Experimental: Mice were randomly divided into 7 groups: control group, aspirin group (ASP,40 mg/Kg), BII group (40 mg/Kg), AIII group (40 mg/Kg), 1:1 group (weight ratio of AIII to BII, 40 mg/Kg), 1:3 group (weight ratio of AIII to BII, 40 mg/Kg), 3:1 group (weight ratio of AIII to BII, 40 mg/Kg). Continuous gastric administration was performed for 5 days, twice per day, and the experiments were conducted after 1 h of the administration on the 6th day. The control group was administered with physiological saline of the same volume. All drug ratios were AIII to BII.
Mice were anesthetized with pentobarbital sodium (40-60 mg/kg), placed on a worm and comfortable pad, a tail tip was cut at a place where the tail of mice had to a diameter of 2.25-2.5 mm, and immediately placed in PBS (37° C.), timing started. Hemostatic time and re-bleeding time within 10 min were observed, and the bleeding volume of mice was presumed by hemoglobin volume.

[1] = tested on: artery-vein bypass thrombosis; test: Artery-vein bypass thrombosis (Example 1); type: in vivo, Wistar rats; conditions: 40 mg/Kg gastric once per day 7 days; bypass 15 min
Experimental: The pipe was taken down after 15 min, thrombus was taken out, rolled on a wet filter paper, residual blood was removed, placed on a parchment paper and weighed to obtained its wet weight. Then, it was placed in a drying oven and dried at 60° C. for 1 h to reach a constant weight, cooled and weighed to obtain the dry weight of thrombus.

blood coagulation [2] = conditions: single compounds; cited from earlier work
[3] = tested on: human platelet aggregation; conditions: single compounds; cited from earlier work
platelet aggregation = test: In vitro activity screening: platelet aggregation; type: cell-based
[4] = tested on: platelet aggregation induced by ADP; test: ADP-induced maximum platelet aggregation rate after gastric administration (Example 1); type: in vivo, Wistar rats; conditions: 40 mg/Kg gastric once per day 7 days; blood 1 h after last dose; ADP 20 μM
Experimental: Wistar rats, after 1 h of administration on the 7th day, were anesthetized by intraperitoneal injection of pentobarbital sodium (40-60 mg/kg), blood samples were collected from hearts, anti-coagulated with 3.8% sodium citrate (volume ratio: 1:9). Centrifugation was performed under 800 rpm and room temperature for 10 min to separate platelet-rich plasmas (PRP), then centrifugation was performed again under 3000 rpm and room temperature for 20 min to separate platelet-poor plasmas (PPP). Counting was performed by using F-820 blood cell counter, and PRP was adjusted with PPP to have a concentration of 3.0×10^11/L.
(§1) Chronolog platelet aggregation analyzer test: Platelet suspension was adjusted with plasma to have a concentration of 3.0×10^11/L, the platelet to aggregation analyzer was turned on and pre-warmed for 30 min, and PPP was used as a blank control to adjust transmittance to be 100%. 450 μL of platelet suspension were taken, stirred with a stir bar and pre-warmed at 37° C. for 3 min, and separately added with inducing agent (50 μL) ADP agent (final concentration: 20 μM), then 5 min diagram was recorded, and aggregation rates at 1 min, 3 min and 5 min and the maximum aggregation rates were read.
Blood samples were collected from heart of anaesthetized mice after 1 h of the last gastric administration of timosaponins, and analyzed to determine the rates of platelet aggregation induced by ADP (20 μM) after administration.

[5] = tested on: thrombotic agent consisting of collagen and adrenalin; test: Lethal time in mice by caudal vein injection of collagen; type: in vivo, Kunming mice; conditions: 40 mg/Kg gastric twice per day 5 days, test 1 h after dose on 6th day; observed within 10 min
Experimental: Mice were fixed on mice-fixed frame, and thrombotic agent (100 μg/mouse) consisting of collagen (0.5 mg/kg) and adrenalin (60 ug/kg) were administered by caudal vein injection. The symptoms, symptom occurrence time, and the lethal time in mice were observed within 10 min, and mice […] after 10 min were deemed as survival.

blood coagulation [6] = test: Blood coagulation parameters APTT, PT and TT in rats; type: in vivo, Wistar rats; conditions: aspirin group (40 mg/kg) gastric once per day 7 days
Experimental: (§2) Wistar rats were randomly divided into 5 groups, i.e., blank control group, aspirin 40 mg/kg group, the present pharmaceutical composition 10 mg/kg, 20 mg/kg and 40 mg/kg groups, the animals of the groups were subjected to continuous gastric administration for 7 days, once per day, dose volume was 10 mL/kg, operation was conducted after 1 h of administration on the 7th day, and the blank control was administered with distilled water of the same volume.
Blood samples were collected, plasmas were separated, and the operation was conducted according to the specification of kits.
The administration method of the present pharmaceutical composition and the grouping method were identical to that of the third part, blood samples were collected from hearts of rats on the 7th day after administration, and the ADP-induced platelet aggregation and bleeding/coagulation time (PT, TT and APTT) of the same batch were determined. […] The aspirin group gave a platelet aggregation rate lower than that of the control group, to but had no significant difference.

[7] = tested on: jugular artery-vein bypass thrombosis; test: Artery-vein bypass thrombosis in rats (Example 3); type: in vivo, Wistar rats; conditions: aspirin 40 mg/kg gastric once per day 7 days; bypass 20 min
Experimental: Then, it was placed in a drying oven and dried at 60° C. for 1 h to reach a constant weight, cooled and weighed to obtain the dry weight of thrombus. […] The aspirin positive control group gave thrombus dry and wet weights slightly higher than those of the large dose group, and had significant difference from the control group.

[8] = tested on: ADP-induced platelet aggregation; test: ADP-induced platelet aggregation rate in rats after gastric administration (Example 3); type: in vivo, Wistar rats; conditions: aspirin 40 mg/kg gastric once per day 7 days; ADP 20 μM; in %
Experimental: as §2, with “volume. […]” for “volume.”
as §1, with “platelet” for “platelet to”, “on,” for “on and pre-warmed for 30 min,”
The administration method of the present pharmaceutical composition and the grouping method were identical to that of the third part, blood samples were collected from hearts of rats on the 7th day after administration, and the ADP-induced platelet aggregation and bleeding/coagulation time (PT, TT and APTT) of the same batch were determined. […]

blood vessels = test: In vitro activity screening: expanding blood vessels
[9] = tested on: rats with cerebral ischemia; conditions: rat, in vivo; cited from earlier work

C[C@H]1CC[C@@]2(OC1)O[C@H]1C[C@H]3[C@@H]4CC[C@@H]5C[C@@H](O[C@@H]6O[C@H](CO)[C@H](O)[C@H](O)[C@H]6O[C@@H]6O[C@H](CO)[C@@H](O)[C@H](O)[C@H]6O)CC[C@]5(C)[C@H]4CC[C@]3(C)[C@H]1[C@@H]2C [AIII, timosaponin AIII]
Bleeding volume (caudal vein bleeding): 21.3 ± 29.6 µL
Hemostatic time (s) (caudal vein bleeding; cut-off 600 s): 396.6 ± 208.9^★★★ s
Thrombus dry weight [1]: 24.4 ± 6.30 mg
Thrombus wet weight [1]: 64.29 ± 22.58 mg
extending blood coagulation time (blood coagulation [2]): significant activity
activity against human platelet aggregation [3]: significant activity
inhibition of platelet aggregation in vitro (platelet aggregation): significantly inhibit; also recorded: significant inhibitive effect
Maximum aggregation rate (%) [4]: 39.8 ± 5.0 %

CC(=O)Oc1ccccc1C(=O)O [ASP, Aspirin]
Lethal time (s) [5]: 244.6 ± 195.3 ^★ s
Bleeding volume (caudal vein bleeding): 13.5 ± 13.8 µL
Hemostatic time (s) (caudal vein bleeding; cut-off 600 s): 277.4 ± 188.5^★★★ s
Hemostatic time (caudal vein bleeding; cut-off 600 s, listed as aspirin): 277.4 ± 188.5 s
Thrombus dry weight [1]: 25.5 ± 7.37 mg
Thrombus wet weight [1]: 79.74 ± 18.95 mg
Coagulation time (s) APTT (blood coagulation [6]): 17.50 ± 2.37 s
Coagulation time (s) PT (blood coagulation [6]): 16.49 ± 2.08 s
Coagulation time (s) TT (blood coagulation [6]): 28.98 ± 0.97 s
Thrombus weight (mg) Dry weight [7]: 26.7 ± 6.4 mg
Thrombus weight (mg) Wet weight [7]: 79.7 ± 19.0 mg
PLT maximum aggregation rate [8]: 49.1 ± 4.8
Maximum aggregation rate (%) [4]: 40.8 ± 7.6 %

C[C@@H](CC[C@@]1(O)O[C@H]2C[C@H]3[C@@H]4CC[C@@H]5C[C@@H](O[C@@H]6O[C@H](CO)[C@H](O)[C@H](O)[C@H]6O[C@@H]6O[C@H](CO)[C@@H](O)[C@H](O)[C@H]6O)CC[C@]5(C)[C@H]4CC[C@]3(C)[C@H]2[C@@H]1C)CO[C@@H]1O[C@H](CO)[C@@H](O)[C@H](O)[C@H]1O [BII, timosaponin BII]
Bleeding volume (caudal vein bleeding): 10.7 ± 9.8 µL
Hemostatic time (s) (caudal vein bleeding; cut-off 600 s): 325.1 ± 200.6^★★★ s
Thrombus dry weight [1]: 28.6 ± 7.82 mg
Thrombus wet weight [1]: 90.39 ± 29.59 mg
expanding blood vessels (blood vessels): could expand blood vessels; also recorded: significant effect of expanding blood vessels
extending blood coagulation time (blood coagulation [2]): significant activity
activity against human platelet aggregation [3]: significant activity
inhibition of platelet aggregation in vitro (platelet aggregation): could not inhibit
Maximum aggregation rate (%) [4]: 50.8 ± 6.7%
blood rheology [9]: significantly improve
cerebral edema [9]: alleviate
cerebral infarction area [9]: reduce
nervous symptoms of rats with cerebral ischemia [9]: significantly improve

CC1=C(CC[C@H](C)CO[C@@H]2O[C@H](CO)[C@@H](O)[C@H](O)[C@H]2O)O[C@H]2C[C@H]3[C@@H]4CC[C@@H]5C[C@@H](O[C@@H]6O[C@H](CO)[C@H](O)[C@H](O)[C@H]6O[C@@H]6O[C@H](CO)[C@@H](O)[C@H](O)[C@H]6O)CC[C@]5(C)[C@H]4CC[C@]3(C)[C@@H]12 [BIII]
extending blood coagulation time (blood coagulation [2]): significant activity
activity against human platelet aggregation [3]: significant activity

CO[C@]1(CC[C@H](C)CO[C@@H]2O[C@H](CO)[C@@H](O)[C@H](O)[C@H]2O)O[C@H]2C[C@H]3[C@@H]4CC[C@@H]5C[C@@H](O[C@@H]6O[C@H](CO)[C@H](O)[C@H](O)[C@H]6O[C@@H]6O[C@H](CO)[C@@H](O)[C@H](O)[C@H]6O)CC[C@]5(C)[C@H]4CC[C@]3(C)[C@H]2[C@@H]1C [BI]
extending blood coagulation time (blood coagulation [2]): significant activity
activity against human platelet aggregation [3]: significant activity

timosaponins Ia
extending blood coagulation time (blood coagulation [2]): significant activity
activity against human platelet aggregation [3]: significant activity
